These results are taken from patent publication US20100144712A1 (priority 2007, published 2010).

What all share (assay type): cell-based
Assay [1] concerns Aspergillus fumigatus (ATCC 16424). Put plainly: In vitro antifungal activity (MIC80), Aspergillus fumigatus ATCC 16424. The conditions noted are these: Aspergillus fumigatus, ATCC16424, Table 2, ATCC 16424; read-out: Minimal inhibitory concentration (MIC80). The method, then: (§1) In vitro antifungal activities of the inventive antifungal compounds were evaluated using test strains including Candida albican (ATCC 90873, 204276, 62342, 64124, 64550, 96901, MYA-573, MYA-574, MYA-575, MYA-576, MYA-1003) and Aspergillus fumigatus (ATCC 16424). Test samples and positive control samples were prepared by dissolving the inventive compounds and comparative compounds, i.e., amphotericin B, fluconazole and itraconazole, in DMSO, respectively, and each successively diluted with medium to obtain test and positive control solutions having test compound concentrations of 0.125 μg/ml to a maximum concentration not generating turbidity. Minimal inhibitory concentration (MIC80) of each compound was determined as the lowest concentration of the test compounds required to reduce growth by 80% relative to a control strain not treated.
(§2) 1) Test strain: Candida albican ATCC 90873, 204276, 62342, 64124, 64550, 96901, MYA-573, MYA-574, MYA-575, MYA-576, MYA-1003, and Aspergillus fumigatus ATCC 16424 were commercially obtained from The American Type Culture Collection (ATCC) and subcultured in CHEMON Co. Ltd. (amphotericin B was commercially purchased from Sigma, and fluconazole and itraconazole were prepared according to methods described in British Patent No. 2,099,818; and U.S. Pat. No. 4,267,179, respectively).
(§3) 2) Medium and culture condition: Candida albican was cultured in Sabourad Dextrose Agar, YM Agar or Potato Dextrose Agar according to ATCC information at a temperature of 37° C., 35° C., 30° C. or 25° C. Aspergillus fumigatus was cultured in Malt Extract Agar or Potato Dextrose Agar at a temperature ranging from 24 to 27° C.
(§4) 3) Preparation of test samples: the inventive compounds and comparative compounds were each diluted with DMSO to obtain 1 to 2 ml of a test sample in a concentration of 100-folds of the determining maximum concentration (256 μg/ml).
(§5) The test samples were each successively diluted with RPMI 1640 to obtain test solutions having concentrations of […] in a 12×75 mm sterilized disposable culture tube. The final concentration of DMSO was adjusted to […] (v/v).
(§6) 5) Preparation of strain solution and inoculation
(§7) Candida albican strains were each subcultured in Sabourad Dextrose Agar, YM Agar or Potato Dextrose Agar medium at 35° C. for 2˜3 days. In the case of yeasts, a single colony was taken from prominent colonies and suspended in 0.85% sterile physiological saline solution and the turbidity of the suspension was adjusted to 80˜82% at 530 nm, and then diluted 50-fold with RPMI 1640 medium to 1.0×10^3˜5.0×10^3 CFU/ml. The turbidity of fungi was adjusted to 80˜82% and the suspension was diluted 50-fold to […]. Aspergillus fumigatus strains were subcultured in Malt Extract Agar for 7˜10 days, and a single colony was taken from prominent colonies and suspended in 0.85% sterile physiological saline solution and the suspension was adjusted to 0.108 at 530 nm, and then diluted 1000-fold with RPMI 1640 medium to 0.4×10^2˜5×10^4 CFU/ml. The turbidity of fungi was adjusted to 80˜82% and the suspension was diluted 50-fold to 0.4102˜0.5104 CFU/ml.
(§8) The strain solutions thus obtained were each seeded into a sterilized 96-well microplate, 0.1 ml of each test solution were added thereto, and […] of alamarblue was treated to each well (Biosource, #DAL1100). This procedure was repeated 2 times.
(§9) Minimal inhibitory concentration (MIC80) of each compound was determined as the lowest concentration of the test compounds required to reduce growth by 80% relative to a control strain not treated.
MIC80 of each of the compounds of which antifungal activities can be confirmed by Table 2 was determined using other test strains, i.e., Aspergillus fumigatus ATCC 16424 and MYA-1163, Aspergillus terreus ATCC 28301, Aspergillus flavus ATCC MYA-1004, and Aspergillus niger ATCC 9142.

Assay [2] has as its system Candida albican ATCC 90873. Description: In vitro antifungal activity (MIC80), Candida albican ATCC 90873. As to conditions: Candida, ATCC90873; Table 2, ATCC 90873; read-out: Minimal inhibitory concentration (MIC80). The essentials: (§10)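 Broth microdilution in RPMI 1640 with 2% (v/v) final DMSO, test solutions 0.25 to 256 […]. Inoculum of 1.0×10^3–5.0×10^3 CFU/ml came from colonies grown 2–3 days at 35 °C, and alamarBlue was added. MIC80 is the lowest concentration reducing growth by 80% versus untreated control.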

In assay [3] the test system is Candida albican ATCC 96901. Put plainly: In vitro antifungal activity (MIC80), Candida albican ATCC 96901. As to conditions: Candida, ATCC96901; Table 2, ATCC 96901; read-out: Minimal inhibitory concentration (MIC80). The essentials: as §10
Assay [4] relates to Candida albican ATCC MYA-1003. Put plainly: In vitro antifungal activity (MIC80), Candida albican ATCC MYA-1003. The conditions noted are these: Candida; Table 2, MYA 1003; read-out: Minimal inhibitory concentration (MIC80). The essentials: as §10
For assay [5], the system named is Candida albican ATCC 204276. Description: In vitro antifungal activity (MIC80), Candida albican ATCC 204276. The conditions noted are these: ATCC204276, Table 2, 204276, read-out: Minimal inhibitory concentration (MIC80). The procedure: as §1, §2, §3, §4, §5, §6, §7, §8, §9
Assay [6] deals with Candida albican ATCC 62342. Description: In vitro antifungal activity (MIC80), Candida albican ATCC 62342. As to conditions: Candida, ATCC62342; Table 2, 62342; read-out: Minimal inhibitory concentration (MIC80). The essentials:
as §10

Assay [7] concerns Candida albican ATCC 64124. Put plainly: In vitro antifungal activity (MIC80), Candida albican ATCC 64124. As to conditions: Candida, ATCC64124; Table 2, 64124; read-out: Minimal inhibitory concentration (MIC80). The essentials:
as §10

Assay [8] concerns Candida albican ATCC 64550. Description: In vitro antifungal activity (MIC80), Candida albican ATCC 64550. The conditions noted are these: Candida, ATCC64550; Table 2, 64550; read-out: Minimal inhibitory concentration (MIC80). The essentials: as §10
Assay [9] has as its system Candida albican ATCC MYA-573. Put plainly: In vitro antifungal activity (MIC80), Candida albican ATCC MYA-573. As to conditions: Candida; Table 2, MYA 573; read-out: Minimal inhibitory concentration (MIC80). The essentials:
as §10

The subject of assay [10] is Candida albican ATCC MYA-574. Put plainly: In vitro antifungal activity (MIC80), Candida albican ATCC MYA-574. The conditions noted are these: Candida; Table 2, MYA 574; read-out: Minimal inhibitory concentration (MIC80). The essentials:
as §10

In assay [11] the test system is Candida albican ATCC MYA-575. Description: In vitro antifungal activity (MIC80), Candida albican ATCC MYA-575. The conditions noted are these: Candida; Table 2, MYA 575; read-out: Minimal inhibitory concentration (MIC80). The essentials:
as §10

Assay [12] relates to Candida albican ATCC MYA-576. Put plainly: In vitro antifungal activity (MIC80), Candida albican ATCC MYA-576. The conditions noted are these: Candida; Table 2, MYA 576; read-out: Minimal inhibitory concentration (MIC80). The essentials: as §10

Values after ≈ are worked out from the molar mass of the structure shown.

In the case of `C[C@@H](N1CCN(c2nc3ccccc3o2)CC1)[C@](O)(Cn1cncn1)c1ccc(F)cc1F` [Example 1, (2R,3R)-3-(4-(benzooxazol-2-yl)piperazin-1-yl)-2-(2,4-difluorophenyl)-1-(1H-1,2,4-triazol-1-yl)butan-2-ol], the MIC80 turned out to be 0.5 µg/mL (≈ 1.1 µM) in [1]; 0.125 µg/mL (≈ 0.275 µM) in assay [2]; 4 µg/mL (≈ 8.8 µM) in assay [3]; 128 µg/mL (≈ 282 µM) in [4]; 0.125 µg/mL (≈ 0.275 µM) in [5]; 0.125 µg/mL (≈ 0.275 µM) in [6]. In addition, the MIC80 in assay [7] came to 4 µg/mL (≈ 8.8 µM); in assay [8], 1 µg/mL (≈ 2.2 µM); in [9] it was 1 µg/mL (≈ 2.2 µM); in [10], 32 µg/mL (≈ 70.4 µM); in assay [11], 32 µg/mL (≈ 70.4 µM); in assay [12], 0.125 µg/mL (≈ 0.275 µM).

Turning to `C[C@@H](N1CCN(c2nc3ccccc3s2)CC1)[C@](O)(Cn1cncn1)c1ccc(F)cc1F` [Example 2, (2R,3R)-3-(4-(benzothiazol-2-yl)piperazin-1-yl)-2-(2,4-difluorophenyl)-1-(1H-1,2,4-triazol-1-yl)butan-2-ol], the MIC80 came to 0.5 µg/mL (≈ 1.06 µM) in assay [1]; 0.125 µg/mL (≈ 0.266 µM) in assay [2]; 2 µg/mL (≈ 4.25 µM) in [3]; 128 µg/mL (≈ 272 µM) in [4]; 0.125 µg/mL (≈ 0.266 µM) in [5]; 0.5 µg/mL (≈ 1.06 µM) in assay [6]. The MIC80 in assay [7] came out at 4 µg/mL (≈ 8.5 µM); in assay [8], 1 µg/mL (≈ 2.13 µM); in [9] it was 0.25 µg/mL (≈ 0.531 µM); in assay [10] it was 8 µg/mL (≈ 17 µM); in [11], 8 µg/mL (≈ 17 µM); in assay [12], 0.125 µg/mL (≈ 0.266 µM).

Consider `C[C@@H](N1CCN(Cc2ccccn2)CC1)[C@](O)(Cn1cncn1)c1ccc(F)cc1F` [Example 41, (2R,3R)-2-(2,4-difluorophenyl)-3-(4-((pyridin-2-yl)methyl)piperazin-1-yl)-1-(1H-1,2,4-triazol-1-yl)butan-2-ol], for which the MIC80 in [1] was 1 µg/mL (≈ 2.33 µM); in assay [2] it was 0.125 µg/mL (≈ 0.292 µM); in [3] it was 32 µg/mL (≈ 74.7 µM); in assay [4], more than 128 µg/mL; in assay [5] it was 0.125 µg/mL (≈ 0.292 µM); in [7] it was 64 µg/mL (≈ 149 µM). The MIC80 in assay [8] amounted to 16 µg/mL (≈ 37.3 µM); in assay [9], 2 µg/mL (≈ 4.67 µM); in assay [10] it was 64 µg/mL (≈ 149 µM); in assay [11] it was 64 µg/mL (≈ 149 µM); in assay [12], 0.125 µg/mL (≈ 0.292 µM).

`CC(N1CCN(C(=O)c2nc(-c3ccc(Cl)cc3)no2)CC1)C(O)(Cn1cncn1)c1ccc(F)cc1F` [Example 48, (3-(4-chlorophenyl-1,2,4-oxadiazol-5-yl)(4-((2R,3R)-3-(2,4-difluorophenyl)-3-hydroxy-4-(1H-1,2,4-triazol-1-yl)butan-2-yl)piperazin-1-yl)methanone]: the MIC80 was 0.126 µg/mL (≈ 0.232 µM) in assay [1]; 0.126 µg/mL (≈ 0.232 µM) in assay [2]; more than 128 µg/mL in assay [3]; more than 128 µg/mL in assay [4]; 0.25 µg/mL (≈ 0.46 µM) in assay [9].

In the case of `COc1ccc(-c2noc(C(=O)N3CCN([C@H](C)[C@](O)(Cn4cncn4)c4ccc(F)cc4F)CC3)n2)cc1` [Example 49, (4-((2R,3R)-3-(2,4-difluorophenyl)-3-hydroxy-4-(1H-1,2,4-triazol-1-yl)butan-2-yl)piperazin-1-yl)(3-(4-methoxyphenyl)-1,2,4-oxadiazol-5-yl)methanone], the MIC80 in assay [1] is 0.5 µg/mL (≈ 0.927 µM); in assay [2], 0.125 µg/mL (≈ 0.232 µM); in [3], more than 128 µg/mL; in assay [4], more than 128 µg/mL; in assay [9] it was 1 µg/mL (≈ 1.85 µM).

As for `C[C@@H](N1CCN(C(=O)c2nc(-c3ccccc3)ns2)CC1)[C@](O)(Cn1cncn1)c1ccc(F)cc1F` [Example 50, (4-((2R,3R)-3-(2,4-difluorophenyl)-3-hydroxy-4-(1H-1,2,4-triazol-1-yl)butan-2-yl)piperazin-1-yl)(3-phenyl-1,2,4-thiadiazol-5-yl)methanone], the MIC80 in assay [1] is 0.5 µg/mL (≈ 0.951 µM); in [2], 0.125 µg/mL (≈ 0.238 µM); in assay [3] it was more than 128 µg/mL; in [4], more than 128 µg/mL; in [9] it was more than 128 µg/mL.

`C[C@@H](N1CCN(C(=O)c2nc(-c3ccc(Cl)cc3)ns2)CC1)[C@](O)(Cn1cncn1)c1ccc(F)cc1F` [Example 51, (3-(4-chlorophenyl)-1,2,4-thiadiazol-5-yl)(4-((2R,3R)-3-(2,4-difluorophenyl)-3-hydroxy-4-(1H-1,2,4-triazol-1-yl)butan-2-yl)piperazin-1-yl)methanone]: the MIC80 in [1] was 1 µg/mL (≈ 1.79 µM); in assay [2] it was 0.25 µg/mL (≈ 0.446 µM); in assay [3], more than 128 µg/mL; in [4] it was more than 128 µg/mL; in assay [9], 4 µg/mL (≈ 7.14 µM).

For `Cc1ccc(-c2nsc(C(=O)N3CCN([C@H](C)[C@](O)(Cn4cncn4)c4ccc(F)cc4F)CC3)n2)cc1` [Example 53, (4-((2R,3R)-3-(2,4-difluorophenyl)-3-hydroxy-4-(1H-1,2,4-triazol-1-yl)butan-2-yl)piperazin-1-yl)(3-p-tolyl-1,2,4-thiadiazol-5-yl)methanone], the MIC80 was 1 µg/mL (≈ 1.85 µM) in assay [1]; 0.25 µg/mL (≈ 0.463 µM) in [2]; more than 128 µg/mL in [3]; more than 128 µg/mL in assay [4]; more than 128 µg/mL in assay [9].

For `COc1ccc(-c2nsc(C(=O)N3CCN([C@H](C)[C@](O)(Cn4cncn4)c4ccc(F)cc4F)CC3)n2)cc1` [Example 54, (4-((2R,3R)-3-(2,4-difluorophenyl)-3-hydroxy-4-(1H-1,2,4-triazol-1-yl)butan-2-yl)piperazin-1-yl)(3-(4-methoxyphenyl)-1,2,4-thiadiazol-5-yl)methanone], the MIC80 in assay [1] was 0.5 µg/mL (≈ 0.9 µM); in assay [2] it was 0.125 µg/mL (≈ 0.225 µM); in [3] it was more than 128 µg/mL; in [4] it was more than 128 µg/mL; in assay [9], 4 µg/mL (≈ 7.2 µM).
